Patent publication US20250340563A1, “FUSED PYRIDAZINE DERIVATIVES AS NLRP3 INHIBITORS” (Takeda Pharmaceutical Company Limited, priority 2022, published 2025)

Experiments:
NF-κB pathway = assay: TNF-α assay in IFN-γ-differentiated, LPS-stimulated THP-1 cells (ELISA); type: cell-based; conditions: Homo sapiens, 50 ng/mL LPS, 3 hours
Procedure, shortened: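 THP-1 cells differentiated with 25 ng/mL IFN-γ for 24 h, then preincubated 30 min at 37 °C with compound (1:3.16 serial dilutions) in serum-free medium. Stimulated with 50 ng/mL LPS for 3 h; supernatant assayed by human TNF-α ELISA. IC50 from four-parameter logistic fit of % inhibition.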

NLRP3 inflammasome = NLRP3 inflammasome (Homo sapiens, UniProt Q96P20); assay: IL-1β assay in IFN-γ-differentiated, LPS-primed, ATP-activated THP-1 cells (ELISA); type: cell-based; conditions: 50 ng/mL LPS priming, 2.5 mM ATP activation, 2 hours
Chain of NLRP3 inflammasome (Q96P20 whole entry): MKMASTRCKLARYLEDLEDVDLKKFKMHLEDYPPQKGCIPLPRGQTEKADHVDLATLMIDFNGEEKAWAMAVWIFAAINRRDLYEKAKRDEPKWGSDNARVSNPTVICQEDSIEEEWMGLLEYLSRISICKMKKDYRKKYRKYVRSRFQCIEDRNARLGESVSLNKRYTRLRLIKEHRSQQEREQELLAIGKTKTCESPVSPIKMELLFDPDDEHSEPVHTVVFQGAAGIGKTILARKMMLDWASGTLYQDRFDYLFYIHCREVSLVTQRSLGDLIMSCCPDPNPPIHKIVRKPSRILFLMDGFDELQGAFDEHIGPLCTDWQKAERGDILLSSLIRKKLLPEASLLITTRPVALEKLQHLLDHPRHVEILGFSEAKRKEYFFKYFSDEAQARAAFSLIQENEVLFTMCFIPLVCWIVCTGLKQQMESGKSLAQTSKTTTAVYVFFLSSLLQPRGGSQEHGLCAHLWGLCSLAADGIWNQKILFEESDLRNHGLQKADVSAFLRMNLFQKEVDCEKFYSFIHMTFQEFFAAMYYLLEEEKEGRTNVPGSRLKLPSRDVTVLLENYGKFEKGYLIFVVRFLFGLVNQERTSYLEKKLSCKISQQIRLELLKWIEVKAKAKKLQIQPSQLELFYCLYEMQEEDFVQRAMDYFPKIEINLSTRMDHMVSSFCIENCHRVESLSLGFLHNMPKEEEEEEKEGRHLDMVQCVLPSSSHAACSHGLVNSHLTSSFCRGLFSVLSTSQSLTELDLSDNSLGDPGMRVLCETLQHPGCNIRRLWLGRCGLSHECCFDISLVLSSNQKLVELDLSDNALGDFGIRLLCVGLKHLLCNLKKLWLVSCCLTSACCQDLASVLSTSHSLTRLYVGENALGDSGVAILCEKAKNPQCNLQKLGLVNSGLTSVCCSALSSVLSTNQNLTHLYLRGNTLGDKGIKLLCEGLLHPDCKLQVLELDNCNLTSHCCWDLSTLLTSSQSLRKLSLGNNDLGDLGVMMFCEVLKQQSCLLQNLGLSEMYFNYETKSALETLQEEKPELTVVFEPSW
Procedure, shortened: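 Supernatant IL-1β is quantified by ELISA after 2 h of 2.5 mM ATP stimulation at 37 °C, with IC50 taken from a four-parameter fit of % inhibition. Before this, THP-1 macrophages (25 ng/mL IFN-γ, 24 h) were LPS-primed (50 ng/mL, 24 h, no FBS) and exposed to serially diluted compound for 30 min.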

MDR1 (P-gp) = biological target: T1, MDR1 (P-gp) (Homo sapiens, UniProt P08183); assay: MDCK-MDR1 assay (apparent permeability and efflux ratio); type: in vitro ADME; conditions: dog; for efflux ratio at 60 min, 1 µM: pH 7.4, MDCK-MDR1, P-gp mediated efflux ratio, read-out: MDR1 ER; for Papp A→B at 60 min, 1 µM: MDCK-MDR1 monolayer, apical to basolateral, pH 7.4, 60 minutes
T1 construct: expressed in transfected cells; host or cells: Madin-Darby Canine Kidney (MDCK) cells
T1 sequence (P08183 whole entry, species assumed): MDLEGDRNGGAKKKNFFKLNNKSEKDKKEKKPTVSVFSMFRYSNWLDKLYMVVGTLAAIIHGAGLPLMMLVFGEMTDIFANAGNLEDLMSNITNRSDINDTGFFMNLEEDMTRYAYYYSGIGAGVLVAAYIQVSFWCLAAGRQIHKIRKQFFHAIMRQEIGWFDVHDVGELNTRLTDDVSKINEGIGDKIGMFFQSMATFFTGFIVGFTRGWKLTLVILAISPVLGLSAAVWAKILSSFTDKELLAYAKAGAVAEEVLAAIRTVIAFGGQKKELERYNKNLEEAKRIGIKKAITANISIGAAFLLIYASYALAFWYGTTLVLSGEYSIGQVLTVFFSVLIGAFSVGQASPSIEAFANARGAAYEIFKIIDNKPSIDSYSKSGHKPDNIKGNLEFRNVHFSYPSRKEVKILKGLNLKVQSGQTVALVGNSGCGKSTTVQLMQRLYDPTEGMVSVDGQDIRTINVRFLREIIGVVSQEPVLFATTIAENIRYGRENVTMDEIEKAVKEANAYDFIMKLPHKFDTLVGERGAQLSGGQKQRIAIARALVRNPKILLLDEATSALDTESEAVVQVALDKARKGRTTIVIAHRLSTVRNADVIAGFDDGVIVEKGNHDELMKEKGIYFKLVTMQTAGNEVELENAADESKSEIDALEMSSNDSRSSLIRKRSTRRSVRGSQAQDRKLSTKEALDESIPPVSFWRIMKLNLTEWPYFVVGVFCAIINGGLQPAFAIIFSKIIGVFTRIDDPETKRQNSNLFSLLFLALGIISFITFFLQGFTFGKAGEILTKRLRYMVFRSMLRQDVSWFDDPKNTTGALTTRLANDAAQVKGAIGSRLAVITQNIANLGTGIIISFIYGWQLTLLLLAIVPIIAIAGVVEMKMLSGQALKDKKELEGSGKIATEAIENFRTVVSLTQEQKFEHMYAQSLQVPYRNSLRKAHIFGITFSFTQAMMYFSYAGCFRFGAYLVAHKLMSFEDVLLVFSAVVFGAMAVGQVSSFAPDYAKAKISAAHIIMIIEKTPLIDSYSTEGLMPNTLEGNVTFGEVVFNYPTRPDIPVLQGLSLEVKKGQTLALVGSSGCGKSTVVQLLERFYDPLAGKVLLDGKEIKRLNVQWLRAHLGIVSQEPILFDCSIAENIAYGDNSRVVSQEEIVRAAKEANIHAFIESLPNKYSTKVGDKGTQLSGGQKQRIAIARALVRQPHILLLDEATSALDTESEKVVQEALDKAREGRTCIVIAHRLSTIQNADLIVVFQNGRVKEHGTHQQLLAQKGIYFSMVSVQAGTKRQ
Protocol: Madine-Darby Canine Kidney (MDCK) cells transfected with Multidrug resistance protein 1 (MDR1) are maintained in accordance with the provider's instructions in Dulbecco's Modified Eagle media (DMEM, Fisher Scientific Cat #10569044). DMEM is supplemented with 10% heat inactivated fetal bovine serum (Gibco Cat #16000-044), Penicillin-Streptomycin (100 units/mL) (Gibco Cat #15140122) and an inducer of P-gp, colchicine (200 nM) (Sigma Cat #C9754). The cells are seeded onto the apical side of HTS-Transwell-96 Plates (0.4 μm pore size, Corning Cat #3381) at a density of 6.25×10^3 cells per well with 75 μL and 250 μL of DMEM media in apical and basolateral wells, respectively, and are incubated at 37° C./5% CO2. Fresh DMEM media is exchanged in the apical and basolateral compartments after 72 hours and cells are allowed to grow into a monolayer for 144 hours before beginning the experimental incubation. Incubations are performed in Hanks' Balanced Salt Solution (HBSS, Fisher Scientific Cat #14025134) at pH 7.4 with 1% Bovine Serum Albumin (Sigma, Cat #A9418) and 10 mM HEPES (Fisher Scientific, Cat #15630080). DMEM media is removed and cells are rinsed with warm (37° C.) HBSS. HBSS with test compound at 1p M substrate concentration (0.1% v/v DMSO) is added to either the apical or basolateral compartment (75 μL or 250 μL, respectively) and blank HBSS buffer is added to the compartment which lacks test compound in singlicate. The cells are incubated for 60 minutes at 37° C./5% CO2. At the end of the incubation period, 50 μL of sample is removed from each receiver compartment and diluted into 150 μL of acetonitrile (Fisher Scientific, Cat #A996SK4)+0.1% formic acid (Sigma, Cat #F0507). The samples are centrifuged at 2000 rcf for 10 minutes at 4° C., after which 100 μL of supernatant is transferred to a new microplate and diluted with 100 μL of HPLC grade water (Fisher Scientific, Cat #W64). Samples are analyzed using a triple quadrupole mass spectrometer API-5500QTrap (ABSciex, Serial No. AU23291006) along with associated autosampler and high performance liquid chromatography pump instrumentation optimized for the detection of test articles through a Kinetix 2.1×50 mm C18 100 Å column (Phenomenex, Cat #00B-4605-AN).
Apparent permeability (Papp) values and efflux ratio are calculated using the following equations: […]

| SMILES | IC50 (NF-κB pathway) [nM] | IC50 (NLRP3 inflammasome) [nM] | efflux ratio at 60 min, 1 µM (MDR1 (P-gp)) | Papp A→B at 60 min, 1 µM (MDR1 (P-gp)) [×10⁻⁶ cm/s] |
| --- | --- | --- | --- | --- |
| CN1C[C@H](F)C[C@@H](Nc2nnc(-c3ccc(C(F)(F)F)cc3O)c3c2COCC3)C1 [Example 234, 2-(4-(((3R,5R)-5-fluoro-1-methylpiperidin-3-yl)amino)-7,8-dihydro-5H-pyrano[3,4-d]pyridazin-1-yl)-5-(trifluoromethyl)phenol] | > 30000 | 6 | 12 | 1.5 |
| CN1C[C@H](F)C[C@@H](Nc2nnc(-c3ccc(F)cc3O)c3c2COCC3)C1 [Example 219, 5-fluoro-2-(4-(((3R,5R)-5-fluoro-1-methylpiperidin-3-yl)amino)-7,8-dihydro-5H-pyrano[3,4-d]pyridazin-1-yl)phenol] | > 30000 | 8 | 13 | 4.7 |
| COCCN1CCC[C@@H](Nc2nnc(-c3ccc(C)cc3O)c3c2COCC3)C1 [Example 233, (R)-2-(4-((1-(2-methoxyethyl)piperidin-3-yl)amino)-7,8-dihydro-5H-pyrano[3,4-d]pyridazin-1-yl)-5-methylphenol] | > 30000 | 155 | 25 | 2 |
| CN1C[C@H](F)C[C@@H](Nc2nnc(-c3ccc(Cl)cc3O)c3c2COCC3)C1 [Example 212, 5-chloro-2-(4-(((3R,5R)-5-fluoro-1-methylpiperidin-3-yl)amino)-7,8-dihydro-5H-pyrano[3,4-d]pyridazin-1-yl)phenol] | > 30000 | 2 | 9 | 2.1 |
| CN1C[C@H](F)C[C@@H](Nc2nnc(-c3ccc(C4CC4)cc3O)c3c2COCC3)C1 [Example 238, 5-cyclopropyl-2-(4-(((3R,5R)-5-fluoro-1-methylpiperidin-3-yl)amino)-7,8-dihydro-5H-pyrano[3,4-d]pyridazin-1-yl)phenol] | > 30000 | 5 | 41 | 0.6 |
| CN1C[C@H](F)C[C@@H](Nc2nnc(-c3ccc(OC(F)(F)F)cc3O)c3c2COCC3)C1 [Example 236, 2-(4-(((3R,5R)-5-fluoro-1-methylpiperidin-3-yl)amino)-7,8-dihydro-5H-pyrano[3,4-d]pyridazin-1-yl)-5-(trifluoromethoxy)phenol] | > 30000 | 7 | 10 | 2.2 |
| Cc1ccc(-c2nnc(N[C@@H]3C[C@@H](F)CN(C)C3)c3c2COCC3)c(O)c1 [Example 201, 2-(1-(((3R,5R)-5-fluoro-1-methylpiperidin-3-yl)amino)-7,8-dihydro-5H-pyrano[3,4-d]pyridazin-4-yl)-5-methylphenol] | > 30000 | 10 | 17 | 1.7 |

Other lines, results leading:

| IC50 (NF-κB pathway) [nM] | IC50 (NLRP3 inflammasome) [nM] | efflux ratio at 60 min, 1 µM (MDR1 (P-gp)) | Papp A→B at 60 min, 1 µM (MDR1 (P-gp)) [×10⁻⁶ cm/s] | SMILES |
| --- | --- | --- | --- | --- |
| > 30000 | 3 | 30 | 1 | COc1ccc(-c2nnc(N[C@@H]3CCCN(C)C3)c3c2CCOC3)c(O)c1 [Example 221, (R)-5-methoxy-2-(4-((1-methylpiperidin-3-yl)amino)-7,8-dihydro-5H-pyrano[3,4-d]pyridazin-1-yl)phenol] |
| > 30000 | 11 | 10 | 1.6 | COc1ccc(-c2nnc(N[C@@H]3C[C@@H](F)CN(C)C3)c3c2CCOC3)c(O)c1 [Example 237, 2-(4-(((3R,5R)-5-fluoro-1-methylpiperidin-3-yl)amino)-7,8-dihydro-5H-pyrano[3,4-d]pyridazin-1-yl)-5-methoxyphenol] |
| > 30000 | 9 | 21 | 1.3 | CN1CCC[C@@H](Nc2nnc(-c3ccccc3O)c3c2COCC3)C1 [Example 226, (R)-2-(4-((1-methylpiperidin-3-yl)amino)-7,8-dihydro-5H-pyrano[3,4-d]pyridazin-1-yl)phenol] |
| > 30000 | 28 | 14 | 3.1 | CN1C[C@H](F)C[C@@H](Nc2nnc(-c3ccccc3O)c3c2COCC3)C1 [Example 213, 2-(4-(((3R,5R)-5-fluoro-1-methylpiperidin-3-yl)amino)-7,8-dihydro-5H-pyrano[3,4-d]pyridazin-1-yl)phenol] |
| > 10000 | 121 | 7 | 1.3 | Cc1ccc(-c2nnc(N[C@@H]3CCCC[C@H]3O)c3c2COCC3)c(O)c1 [Example 230, 2-(1-(((1R,2R)-2-hydroxycyclohexyl)amino)-7,8-dihydro-5H-pyrano[3,4-d]pyridazin-4-yl)-5-methylphenol] |
| > 10000 | 36 | 6 | 1 | Cc1ccc(-c2nnc(N[C@@H]3CCCC[C@H]3O)c3c2CCOC3)c(O)c1 [Example 229, 2-(4-(((1R,2R)-2-hydroxycyclohexyl)amino)-7,8-dihydro-5H-pyrano[3,4-d]pyridazin-1-yl)-5-methylphenol] |
